According to patent US20250144107A1, “USE OF A PIKFYVE INHIBITOR IN COMBINATION WITH IMMUNOTHERAPY” (The Regents of the University of Michigan, priority 2023, published 2025):

Legend:
[1] = system: immune cells enriched from spleens; assay: Immune cells from spleens of non-tumor-bearing mice; type: in vivo
Procedure: FIG. 13A is a box and whisker plot of relative median fluorescent intensity of surface XCR1 in CD45^+ cells of splenic DCs in PIKfyve inhibitor-treated non-tumor-bearing mice.
FIG. 13B is a box and whisker plot of cDC1 cells from spleens of mice treated with vehicle or apilimod, 30 mg/kg daily, after 5 days of treatment.
FIG. 18A is a series of nine scatter plots of the gating strategy for CD69^+ effector, naïve, terminally differentiated, resident memory, central memory, and exhausted CD8^+ T cells from spleens of non-tumor-bearing mice treated with vehicle or apilimod, 30 mg/kg daily, after 5 days of treatment.
FIG. 18H is a series of nine scatter plots of the gating strategy for FIG. 13A-B and FIG. 18I for myeloid cells and cDCs.

[2] = system: NF-κB gene targets in cDCs; assay: RNA-seq and gene set enrichment in cDCs; type: cell-based, mice
Procedure: FIG. 14B is a line graph of the enrichment of NF-κB target genes in DMSO or apilimod-treated, 3 hours, cDCs after 6 days of culture.
FIG. 14C is a line graph of the enrichment of NF-κB target genes in DMSO or apilimod-treated, 8 hours, cDCs after 6 days of culture.
FIG. 14H is a scatter plot of differentially expressed genes in apilimod versus DMSO-treated, 8 hours, cDCs after 6 days of culture.
FIG. 21C is a line graph of MSigDB Hallmark “TNF_SIGNALING_VIA_NFκB” in apilimod vs. DMSO-treated, 3 hours, cDCs after 6 days of culture.
FIG. 21D is a line graph of MSigDB Hallmark “TNF_SIGNALING_VIA_NFκB” in apilimod vs. DMSO-treated, 8 hours, cDCs after 6 days of culture.
The Eukaryote Total RNA Nano kit (Agilent Technologies; catalog #: 5067-1511) was used to check the quality of RNAs on an Agilent bioanalyzer. A total of 800 ng RNA was then used for library preparation with the KAPA RNA Hyper+RiboErase HMR kit (Roche Diagnostics; Catalog #: 08098140702), following the instructions from the user manual. Briefly, the ribosomal RNA was removed by enzymatic digestion, and then the RNA was fragmented to around 200-300 bp with heat in fragmentation buffer. Synthesis of cDNA was conducted with reverse transcriptase and random primer, and then the second strand was synthesized to generate double-stranded cDNA. Following the repair of the DNA ends, NEB adapter was ligated, and the DNA are amplified with the KAPA HiFi HotStart mix and NEB dual barcode. Quality of the library was checked using the bioanalyzer with the Agilent DNA 1000 Kit (Agilent Technologies; catalog #: 5067-1504), and the sequencing was performed using NovaSeq 6000. The RNA-sequencing data was analyzed with packages limma and edgeR See, e.g., Ritchie, M. E. et al., Nucleic Acids Res. 2015; 43(7):47; Phipson, B. et al., Ann. Appl. Stat. 2016; 10(2):946-963; Robinson, M. D. et al., Bioinformatics 2010; 26(1):139-40. […] The analyzed hallmark pathways were collected from the Molecular Signatures Database See, e.g., Subramanian, A. et al., Proc. Natl. Acad. Sci. USA 2005; 102(43):15545-15550; Liberzon, A. et al., Cell Syst. […]

IL-12 in cDCs = assay: Il12b RT-qPCR and IL-12 ELISA in cDCs; type: cell-based, mice
Procedure: FIG. 21E is a bar graph comparison of Il12b expression fold change by RT-qPCR in apilimod vs. DMSO-treated, 3 or 12 hours, cDCs after 6 days of culture.
FIG. 21F is a bar graph comparison of IL-12p40 protein levels by ELISA in media from apilimod vs. DMSO-treated, 12 hours, cDCs after 6 days of culture.
FIG. 21G is a bar graph Supp. 5 g Comparison of IL-12p70 protein levels by ELISA in media from apilimod vs. DMSO-treated, 24 hours, cDCs after 6 days of culture.

[3] = system: tumor infiltrating DCs in B16F10 tumors; assay: Tumor infiltrating DCs in B16F10 tumors of PIKfyve KO or WT mice; type: in vivo; settings: for percentage of cDC1s: 30 mg/kg daily
Procedure: FIG. 15E is a box and whisker plot of the XCR1 median fluorescent intensity by % cDC1 subset in B16F10 tumor model treated with vehicle or apilimod, 30 mg/kg daily.
FIG. 15F is a series of three box and whisker plot of the XCR1 median fluorescent intensity by all DCs, cDC1 or cDC2 subset in PIKfyve KO mice or WT mice treated with vehicle or apilimod, 30 mg/kg daily.
FIG. 23F is a box and whisker plot of the % cDC2 of all DC cells in PIKfyve KO mice or WT mice treated with vehicle or apilimod, 30 mg/kg daily.
FIG. 23G is a series of three box and whisker plots of the SIRP1α median fluorescent intensity by all DC, cDC1 or cDC2 subset in PIKfyve KO mice or WT mice treated with vehicle or apilimod, 30 mg/kg daily.

[4] = system: subcutaneous B16F10 tumors; assay: Subcutaneous B16F10 tumor model; type: in vivo, mice
Procedure: FIG. 15D is a line graph of the subcutaneous tumor volume of B16F10 tumors in PIKfyve KO mice or WT mice treated with anti-PD1 antibody, 200 μg every 3 days, or isotype control after 15 days.
FIG. 16D is a line graph of the subcutaneous tumor volume of B16F10 tumors in mice treated with vehicle or apilimod, 30 mg/kg daily, in wild-type or Batf3^−/− mice.
FIG. 26E is a line graph of the subcutaneous tumor volume of B16F10 tumors in mice treated with vehicle or apilimod, 30 mg/kg daily, in NSG™ mice.
FIG. 26F is a line graph of the subcutaneous tumor volume of B16F10 tumors in mice treated with vehicle versus apilimod, 30 mg/kg daily, in NSG™ mice.

[5] = 30 mg/kg daily, 5 days, vs vehicle

## Cc1cccc(/C=N/Nc2cc(N3CCOCC3)nc(OCCc3ccccn3)n2)c1 [apilimod, N-[(E)-(3-methylphenyl)methylideneamino]-6-morpholin-4-yl-2-(2-pyridin-2-ylethoxy)pyrimidin-4-amine]
[1]; [5]
  percentage of terminally differentiated, memory or exhausted CD8+ T cells: no changes
  proportions of CD69+CD8+ T cells: increased
  total surface expression of CD11c, F4/80, or CD11b: no change
  total surface expression of XCR1: increase
[1]; within the cDC subset
  relative percentage of cDC1s versus cDC2 cells: increase
[2]; 3 and 8 hours, vs DMSO
  enrichment of TNF_SIGNALING_VIA_NFκB gene set: positive enrichment
[2]; 8 hours, vs DMSO
  Sqstm1 expression: most significantly upregulated gene
[2]; early time points
  enrichment of direct NF-κB gene targets: positively enriched
IL-12 in cDCs; ELISA
  secretion of IL-12p40: increased
  secretion of IL-12p70: increased
IL-12 in cDCs; RT-qPCR
  Il12b transcripts: increased
[3]; KO mice
  percentage of cDC1s: no additional increase
[3]; WT and KO mice
  total surface XCR1 expression, differences between groups compared with cDC1 percentage: the same
[3]; WT mice
  percentage of cDC1s: increased
[3]; between any groups
  percentage of cDC2s or total surface SIRP1α expression: no changes
[4]; Batf3−/− mice
  efficacy in Batf3−/− mice: lost
[4]; NSG mice
  efficacy in NSG mice: lost
[4]; WT, non-transgenic mice, vs vehicle
  B16F10 tumor growth: reduced
